Data as given in patent publication US6753330B2, “Solid dispersion composition” (Kowa Co., Ltd., priority 2002, dated 2004).

Columns and labels:
[1] = system: production of interleukin 1β; conditions: disclosed in JP Laid-Open No. 2000-198776; cited from earlier work
[2] = Solubility of compound 1 in water; type: physicochemical

Structure (SMILES): CSc1ccc(-c2nn(Cc3ccccc3)c(=O)cc2-c2ccc(Cl)cc2)cc1 [compound 1, 2-benzyl-5-(4-chlorophenyl)-6-[4-(methylthio)phenyl]-2H-pyridazin-3-one]
- effect for suppressing production of interleukin 1β (in words) [1]: excellent effect
- solubility in water (in words) [2]: exceptionally poor solubility in water
